Data as given in PMC5773487, “Harnessing insulin- and leptin-induced oxidation of PTP1B for therapeutic development” (Nature Communications, 2018).
Changes are numbered by the printed parent chain. Entries after “also recorded” stand apart in the source; their conditions may differ. Blank lines part the entries; values can stand above or below the molecule they belong to.

Legend:
[1] = biological target: T1, oxidized PTP1B-mut2 (L37F/K39E/K41R) (Homo sapiens, UniProt P18031, K39E/K41R/L37F); assay: reduction and reactivation of oxidized PTP1B-mut2, DiFMUP, TCEP; type: biochemical; settings: TCEP 5 mM
T1 construct: PTP1B (1–321) and TCPTP (1–317) cloned in pET21b vector were used as templates; 6xHis (C); made in house; host or cells: E. coli BL21 (DE3)-RIL
T1 sequence (P18031 1-321 L37F/K39E/K41R): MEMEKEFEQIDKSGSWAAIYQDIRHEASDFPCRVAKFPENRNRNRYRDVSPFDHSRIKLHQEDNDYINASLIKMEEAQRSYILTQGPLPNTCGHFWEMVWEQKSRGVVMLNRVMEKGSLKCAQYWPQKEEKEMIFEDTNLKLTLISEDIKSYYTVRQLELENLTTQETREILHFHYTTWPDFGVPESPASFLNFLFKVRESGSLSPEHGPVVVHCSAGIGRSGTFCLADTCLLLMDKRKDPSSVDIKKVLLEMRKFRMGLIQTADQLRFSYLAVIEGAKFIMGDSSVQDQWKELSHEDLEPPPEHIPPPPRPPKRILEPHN
Description: Fig. 1 Molecular characterization of PTP1B-scFv45 interaction. a Overlay of PTP1B (gray) and TCPTP (pale blue) crystal structures, highlighting residues that are changed in generating mutant forms (-mut1 and -mut2) of the enzymes. b Increasing concentrations of recombinant HA-tagged scFv45 were incubated with oxidized wild-type (-wt) or mutant (-mut) forms of PTP1B (top panel) and oxidized wild-type or mutant forms of TCPTP (bottom panel). The protein complexes were precipitated with anti-HA-agarose beads and equivalent amounts of input, supernatant, and eluate were subjected to immunoblot analysis. Data are representative of at least three independent experiments (n = 3). c Michaelis–Menten plots for wild-type (circle), -mut1 (square), or -mut2 (triangle) forms of PTP1B (left) and TCPTP (right) are shown. […] Individual data points represent the mean obtained from three separate experiments (n = 3). d Wild-type and mutant forms of PTP1B were incubated with increasing concentrations of H2O2 and phosphatase activity was measured using DiFMUP in the absence (black bar) and presence (gray bar) of the reducing agent TCEP (5 mM). e Oxidized PTP1B-wt (circle), PTP1B-mut1 (square), or PTP1B-mut2 (triangle) were incubated with increasing concentration of scFv45 (0–1000 nM) and phosphatase activity was measured using DiFMUP as substrate in the presence of the reducing agent TCEP (5 mM). […]

[2] = system: leptin signaling in hepatic stellate cells; assay: leptin signaling in hepatic stellate cells (immunoblot); type: cell-based, human; settings: for effect on JAK2 phosphorylation in presence of apocynin: NOX inhibitor apocynin; for leptin-induced tyrosine phosphorylation of JAK2: chelerythrine 0–5 μM or ectopic scFv45
Description: Human hepatic stellate cells (HSteCs; ScienCell research laboratories, CA) were cultured according to manufacturer’s instructions. Cells were seeded on poly-L-lysine coated dishes and maintained in Stellate Cell Medium (SteCM, Cat. #5301). When cells reached 70% confluency they were split for various experiments. To study leptin signaling, HSCs were incubated in serum-free DMEM for 24 h and then stimulated with varying concentration of leptin (0, 10, 25, 50, 100, and 200 ng ml^−1) for 15 min. To study the effect of chelerythrine and protopine, serum starved cells were incubated with the compounds at varying concentrations (0–5 µM) for 1 h prior to leptin stimulation. In some groups, cells were pre-incubated (60 min) with the NADPH oxidase inhibitor apocynin (100 nM), before stimulation with leptin.

[3] = biological target: T2, PTP1B-OX (Homo sapiens, UniProt P18031); assay: reduction and reactivation of reversibly oxidized PTP1B by TCEP, DiFMUP substrate; type: biochemical
T2 construct: Purified PTP1B (1–321) (100 nM) was mixed with increasing concentrations of H2O2; 6xHis (C); made in house; host or cells: E. coli BL21 (DE3)-RIL
T2 sequence (P18031 1-321): T1 sequence (P18031 1-321 L37F/K39E/K41R) with F37L, E39K, R41K

Molecule: COc1ccc2c(c[n+](C)c3c4cc5c(cc4ccc23)OCO5)c1OC [chelerythrine]
inhibition of reduction and reactivation of oxidized PTP1B-mut2 [1]: unable to inhibit; also recorded: insensitive | effect on JAK2 phosphorylation in presence of apocynin [2]: attenuated | leptin-induced tyrosine phosphorylation of JAK2 [2]: dose-dependent increase | reversibility of PTP1B-OX inhibition ([3]; complex diluted 100-fold, activity monitored 120 min): reversible

inhibition of reduction and reactivation of oxidized PTP1B-mut2 [1]: did not attenuate | Ki ([3]; intrabodies, phosphatase activity, read-out: Ki against oxidized PTP1B-wt): 10 nM
B1: scFv45: recombinant conformation-sensor single-chain variable fragment antibody recognizing oxidized PTP1B (antibody, V domains shown)
VH: TVTLDESGGGLQAPGGALSLVCKASGFTFSSYDMGWIRQAPGKGLEYVAGITDNGRYASYGSAVDGRATISRDNGQSSVRLQLNNLRAEDTGTYYCARDDGSGWTGNSIDAWGHGTEVIVSE
VL: ALTQPSSVSANPGGTVKITCSGSSSAYGYGWYQQKSPGSAPVTVIYNNNKRPSNIPSRFSGSKSGSTGTLTITGVQAEDEAVYFCGSEDSSTDAIFGAGTTLTVL
effect on JAK2 phosphorylation in presence of apocynin [2]: abrogated | leptin-induced tyrosine phosphorylation of JAK2 [2]: enhanced phosphorylation of JAK2
